Assay results as given in patent US20140004243A1, “SALTY TASTE ENHANCER” (AJINOMOTO CO., INC., priority 2011, published 2014).

Molecular target: T1, Human ENaC δ, β and γ subunit (Homo sapiens, UniProt P51168+P51170+P51172)
T1 construct: expressed in transfected cells; host or cells: Xenopus laevis (African clawed frog) oocytes injected with cRNA
T1 sequence (P51172 1-802): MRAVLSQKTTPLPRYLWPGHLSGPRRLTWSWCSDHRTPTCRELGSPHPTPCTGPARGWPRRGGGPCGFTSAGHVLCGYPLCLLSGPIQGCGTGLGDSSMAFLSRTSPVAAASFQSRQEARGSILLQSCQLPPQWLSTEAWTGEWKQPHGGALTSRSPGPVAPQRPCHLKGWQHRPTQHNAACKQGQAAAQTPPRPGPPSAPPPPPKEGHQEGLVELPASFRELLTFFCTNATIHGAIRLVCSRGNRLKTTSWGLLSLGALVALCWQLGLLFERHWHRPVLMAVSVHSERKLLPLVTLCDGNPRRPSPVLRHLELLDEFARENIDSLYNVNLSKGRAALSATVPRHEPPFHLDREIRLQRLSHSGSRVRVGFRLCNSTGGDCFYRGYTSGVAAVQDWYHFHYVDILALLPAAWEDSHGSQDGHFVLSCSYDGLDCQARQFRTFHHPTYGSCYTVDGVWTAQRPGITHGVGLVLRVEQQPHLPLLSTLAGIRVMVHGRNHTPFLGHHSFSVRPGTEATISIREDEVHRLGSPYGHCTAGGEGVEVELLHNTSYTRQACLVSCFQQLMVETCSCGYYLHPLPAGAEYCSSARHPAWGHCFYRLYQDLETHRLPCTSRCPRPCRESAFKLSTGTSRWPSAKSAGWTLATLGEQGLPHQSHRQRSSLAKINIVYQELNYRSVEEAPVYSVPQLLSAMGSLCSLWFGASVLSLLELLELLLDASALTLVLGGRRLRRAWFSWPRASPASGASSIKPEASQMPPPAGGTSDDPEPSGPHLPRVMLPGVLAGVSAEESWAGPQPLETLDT
T1 sequence (P51168 1-640): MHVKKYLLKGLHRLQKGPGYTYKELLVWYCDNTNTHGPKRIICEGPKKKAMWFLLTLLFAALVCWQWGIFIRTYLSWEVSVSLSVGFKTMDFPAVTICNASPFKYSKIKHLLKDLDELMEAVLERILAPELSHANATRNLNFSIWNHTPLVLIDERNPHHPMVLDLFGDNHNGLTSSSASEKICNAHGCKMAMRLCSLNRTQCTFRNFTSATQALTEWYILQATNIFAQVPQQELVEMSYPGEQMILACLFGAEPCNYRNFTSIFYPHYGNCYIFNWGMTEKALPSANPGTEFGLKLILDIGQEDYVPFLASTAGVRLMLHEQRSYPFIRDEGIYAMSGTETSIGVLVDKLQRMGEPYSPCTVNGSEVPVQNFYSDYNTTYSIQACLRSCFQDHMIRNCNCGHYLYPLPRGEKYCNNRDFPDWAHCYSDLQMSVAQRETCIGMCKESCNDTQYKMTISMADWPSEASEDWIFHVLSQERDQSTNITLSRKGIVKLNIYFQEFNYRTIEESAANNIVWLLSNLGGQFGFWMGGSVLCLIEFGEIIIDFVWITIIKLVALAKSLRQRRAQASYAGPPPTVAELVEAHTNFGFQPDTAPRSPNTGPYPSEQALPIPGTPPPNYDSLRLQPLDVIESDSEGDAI
T1 sequence (P51170 1-649): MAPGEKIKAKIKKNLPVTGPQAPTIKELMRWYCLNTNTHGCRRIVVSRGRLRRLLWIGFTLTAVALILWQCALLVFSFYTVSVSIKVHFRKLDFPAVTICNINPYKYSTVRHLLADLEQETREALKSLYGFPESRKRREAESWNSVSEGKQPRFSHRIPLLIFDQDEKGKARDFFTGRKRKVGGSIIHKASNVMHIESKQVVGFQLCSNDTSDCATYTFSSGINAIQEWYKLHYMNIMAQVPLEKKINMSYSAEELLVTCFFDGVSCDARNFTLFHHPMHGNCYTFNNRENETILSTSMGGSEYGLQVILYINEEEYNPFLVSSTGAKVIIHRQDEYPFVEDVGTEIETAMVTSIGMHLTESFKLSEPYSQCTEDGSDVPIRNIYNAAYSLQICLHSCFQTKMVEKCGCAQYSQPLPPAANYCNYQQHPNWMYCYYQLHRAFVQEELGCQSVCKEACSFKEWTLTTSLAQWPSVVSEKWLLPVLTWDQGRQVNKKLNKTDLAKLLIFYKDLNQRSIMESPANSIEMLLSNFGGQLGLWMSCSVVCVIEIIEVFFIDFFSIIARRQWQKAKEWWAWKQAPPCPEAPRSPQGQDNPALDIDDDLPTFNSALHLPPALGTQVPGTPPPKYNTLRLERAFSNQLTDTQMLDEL
Experiment: Measurement of ENaC activation potency (MED) in ENaC-expressing oocyte, Two Electrode Voltage Clamp
Type: cell-based
Conditions: minimum effective dose at which current started to increase; ENaC-expressing African clawed frog oocyte; smaller MED = higher ENaC activation potency
Summary of the method: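 Xenopus oocytes injected with human ENaC δ, β and γ cRNA, cultured 16–72 hr, voltage-clamped 30 mV below resting potential in ND96 (pH 7.6) by two-electrode voltage clamp. Compounds (0.1 nM–300 μM) perfused at rising concentrations every 3 min. MED = lowest dose raising current ≥10%, or raising 5 μM capsazepine-evoked current ≥25%, whichever smaller.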

Row | MED [µM] | Compound
1 | 0.3 | C[C@@H](NC(=S)NCCc1ccccc1)c1ccccc1 [Example 11]
2 | 0.3 | OC[C@@H](NC(=S)NCCc1ccccc1)c1ccccc1 [Example 51]
3 | 3 | Oc1cc2c(cc1O)CN(C(=S)NCCc1ccc(Cl)cc1)CCC2 [capsazepine]
